Common to all, as to settings: cattle
Data set [1] has as its target T1, Albumin (Bos taurus, UniProt P02769). Nature of the data set: Binding affinity to bovine serum albumin at pH 7.4 at 310K in presence of Fe3+ by fluorescence quenching.
The target in data set [2] is T1, Albumin. Nature of the data set: Binding affinity to bovine serum albumin at pH 7.4 at 310K by fluorescence quenching logarithmic plot.
The target of data set [3] is T1, Albumin. Nature of the data set: Binding affinity to bovine serum albumin at pH 7.4 at 310K in presence of Fe3+ by fluorescence quenching logarithmic plot.
Data set [4] deals with T1, Albumin. Nature of the data set: Binding affinity to bovine serum albumin using 4.5x10'-6 Lmol'-1 at pH 7.4 at 310K by Stern-Volmer plot.
Data set [5] has as its target T1, Albumin. Nature of the data set: Binding affinity to bovine serum albumin at pH 7.4 at 310K in presence of Cu2+ by fluorescence quenching logarithmic plot.
Data set [6] deals with T1, Albumin. Nature of the data set: Binding affinity to bovine serum albumin using 3x10'-6 Lmol'-1 at pH 7.4 at 310K by Stern-Volmer plot.
Data set [7] deals with T1, Albumin. Nature of the data set: Binding affinity to bovine serum albumin using 6x10'-6 Lmol'-1 at pH 7.4 at 310K by Stern-Volmer plot.
The target of data set [8] is T1, Albumin. Nature of the data set: Binding affinity to bovine serum albumin at pH 7.4 at 310K by fluorescence quenching.
For data set [9], the target named is T1, Albumin. Nature of the data set: Binding affinity to bovine serum albumin at pH 7.4 at 310K in presence of Cu2+ by fluorescence quenching.

T1 sequence (P02769 whole entry): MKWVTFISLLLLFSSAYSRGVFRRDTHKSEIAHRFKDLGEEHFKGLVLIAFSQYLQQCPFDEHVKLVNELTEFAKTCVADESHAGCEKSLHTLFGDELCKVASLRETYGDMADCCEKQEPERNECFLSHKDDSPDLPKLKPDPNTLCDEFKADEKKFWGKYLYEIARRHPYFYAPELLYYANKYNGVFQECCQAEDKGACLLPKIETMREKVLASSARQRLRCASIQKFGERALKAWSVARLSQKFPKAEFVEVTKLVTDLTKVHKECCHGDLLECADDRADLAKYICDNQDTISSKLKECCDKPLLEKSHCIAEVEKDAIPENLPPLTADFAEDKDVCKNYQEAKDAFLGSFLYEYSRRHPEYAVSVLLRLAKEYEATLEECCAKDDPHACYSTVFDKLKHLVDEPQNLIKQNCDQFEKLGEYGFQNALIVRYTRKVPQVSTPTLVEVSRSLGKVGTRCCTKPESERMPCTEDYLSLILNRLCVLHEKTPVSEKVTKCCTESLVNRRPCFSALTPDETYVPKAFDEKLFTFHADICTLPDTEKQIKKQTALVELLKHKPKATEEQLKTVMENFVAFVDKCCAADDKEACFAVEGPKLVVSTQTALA

For `O=c1cc(-c2ccccc2)oc2cc(O)c(O)c(O)c12` [BAICALEIN], the KSV was determined as 1.6 ×10⁵ L/mol on Albumin [1]; 1.96 ×10⁵ L/mol on Albumin [4]; 2.11 ×10⁵ L/mol on Albumin [6]; 1.51 ×10⁵ L/mol at Albumin [7]; 1.96 ×10⁵ L/mol at Albumin [8]; 1.76 ×10⁵ L/mol on Albumin [9]. Besides, the Kq on Albumin [1] is reported as 3.2 ×10¹³ L/mol/s; on Albumin [4] it was 3.92 ×10¹³ L/mol/s; on Albumin [6], 4.22 ×10¹³ L/mol/s; on Albumin [7] it was 3.02 ×10¹³ L/mol/s; on Albumin [8], 3.92 ×10¹³ L/mol/s; on Albumin [9], 3.52 ×10¹³ L/mol/s. The K on Albumin [2] amounted to 2.7 ×10⁵ L/mol; on Albumin [3], 4.85 ×10⁴ L/mol; at Albumin [5], 1.88 ×10⁵ L/mol.
